Data taken from article PMC7564829, “Potent Broad-Spectrum Antibacterial Activity of Amphiphilic Peptides against Multidrug-Resistant Bacteria” (Microorganisms, 2020).

What was measured:
MRSA T144 = assay: MIC/MBC, broth micro-dilution; assay type: cell-based, Staphylococcus aureus; settings: MRSA T144
Method: (§1) Experiments were performed with two biological replicates.

E. coli 1F28 (tet(X4)) = assay: MIC/MBC, broth micro-dilution; assay type: cell-based; settings: E. coli 1F28 (tet(X4))
Method: as §1

E. coli B3-1 (tet(X4)) = assay: MIC/MBC, broth micro-dilution; assay type: cell-based; settings: E. coli B3-1 (tet(X4))
Method: as §1

E. faecalis A4 (VRE) = assay: MIC/MBC, broth micro-dilution; assay type: cell-based; settings: E. faecalis A4 (VRE)
Method: as §1

E. coli 1A34 = assay: MIC, tigecycline-resistant clinical isolate; assay type: cell-based; settings: E. coli 1A34, anal swab, tigecycline-resistant clinical isolate; broth micro-dilution
Method: as §1

E. coli 1C1 = assay: MIC, tigecycline-resistant clinical isolate; assay type: cell-based; settings: E. coli 1C1, dust, tigecycline-resistant clinical isolate; broth micro-dilution
Method: as §1

E. coli 1F16 = assay: MIC, tigecycline-resistant clinical isolate; assay type: cell-based; settings: E. coli 1F16, feces, tigecycline-resistant clinical isolate; broth micro-dilution
Method: as §1

E. coli 1F31 = assay: MIC, tigecycline-resistant clinical isolate; assay type: cell-based; settings: E. coli 1F31, tigecycline-resistant clinical isolate; broth micro-dilution
Method: as §1

E. coli 1N28 = assay: MIC, tigecycline-resistant clinical isolate; assay type: cell-based; settings: E. coli 1N28, nasal swab, tigecycline-resistant clinical isolate; broth micro-dilution
Method: as §1

E. coli 1N31 = assay: MIC, tigecycline-resistant clinical isolate; assay type: cell-based; settings: E. coli 1N31, tigecycline-resistant clinical isolate; broth micro-dilution
Method: as §1

E. coli 2A19 = assay: MIC, tigecycline-resistant clinical isolate; assay type: cell-based; settings: E. coli 2A19, tigecycline-resistant clinical isolate; broth micro-dilution
Method: as §1

E. coli 2W25 = assay: MIC, tigecycline-resistant clinical isolate; assay type: cell-based; settings: E. coli 2W25, water, tigecycline-resistant clinical isolate; broth micro-dilution
Method: as §1

Shigella 1F25 = assay: MIC, tigecycline-resistant clinical isolate; assay type: cell-based; settings: Shigella 1F25, feces, broth micro-dilution
Method: as §1

[1] = Hydrophobicity by RP-HPLC (percent acetonitrile at elution); assay type: physicochemical; settings: acetonitrile in water, 0.1% (v/v) TFA, higher percent = higher hydrophobicity
Method: All peptides used in this study were synthesized by GL Biochem (Shanghai, China) using a solid phase peptide synthesis (SPPS) method, and their accurate molecular weights were determined by matrix-assisted laser desorption/ionization time-of-flight mass spectrometry (MALDI-TOF MS). The peptide purity (>95%) and retention time were determined by reversed-phase high-performance liquid chromatography (HPLC).
A collection of tryptophan-rich linear peptides on the basis of MP196 (RWRWRW-NH2) was designed by increasing peptide length or positive charge or hydrophobicity, replacing amino acids and/or N-terminal acetylation (Table 1). These peptides were synthesized via solid-phase peptide synthesis (SPPS), purified by reverse-phase high-performance liquid chromatography (RP-HPLC) (Figure S1) and validated by matrix-assisted laser desorption/ionization time-of-flight mass spectrometry (MALDI-TOF MS) (Figure S2). […] All engineered peptides belong to cationic AMPs, with 3 or 6 net charges. The percentage of acetonitrile at RP-HPLC elution was regarded as a relative measure of peptides’ hydrophobicity. […] The hydrophobicity order was listed as follows: WRK-12 > WL-9 > WR-6 > WV-9 > KW-6 > WKK-12 > WR-12 > MP196 > WK-6.

E. coli 1F28 [2] = assay: Thermal and pH stability (residual antibacterial activity by MIC); assay type: physicochemical; settings: residual MIC against E. coli 1F28
Excerpt: (§2) Thermal, pH and proteolytic stability.

pepsin = pepsin 10 mg/mL, 1 h preincubation; residual MIC against E. coli 1F28
Method: Thermal, pH and proteolytic stability. WRK-12 was preincubated at different temperatures (from 25 to 121 °C), pH (from 2 to 12) or proteases (pepsin, trypsin and papain, final concentration 10 mg/mL) for 1 h. Samples after pH treatment were readjusted to pH = 7.2 to determine the residual antibacterial activity by MIC tests. Samples after proteases treatment were heated at 80 °C for 30 min, and centrifuged at 13,000× g for 30 min to precipitate proteases, and the residual antibacterial activity of supernatants was tested by MIC analysis.

papain = papain (Carica papaya, UniProt P00784); assay: Proteolytic stability (residual antibacterial activity by MIC); assay type: in vitro ADME; settings: papain 10 mg/mL, 1 h preincubation; residual MIC against E. coli 1F28
Excerpt: as §2

E. coli 1F28 [3] = assay: ROS measurements (DCFH-DA); assay type: cell-based; settings: 0 to 128 μg/mL, 60 min
Method: 2′,7′-Dichlorodihydrofluorescein diacetate (DCFH-DA, 10 μM) was incubated with E. coli 1F28 cells for 30 min. After washing with 0.01 M PBS, the probed cells were mixed with WRK-12 (0 to 128 μg/mL) or colistin (128 μg/mL) for 60 min. The ROS levels were assessed by monitoring the fluorescence intensity (λexcitation = 488 nm, λemission = 525 nm) using a Microplate reader (Tecan, Männedorf, Switzerland).

E. coli 1F28 biofilm = assay: Prevention of biofilm formation (crystal violet); assay type: cell-based; settings: 24 h
Method: The prevention of biofilm formation was assessed as described previously. Briefly, bacteria (1 × 10^5 CFUs per mL) were exposed to WRK-12 solutions (with final concentrations ranging from 0.25 to 32 μg/mL). As an untreated control, bacteria were exposed to MHB without drugs. After 24 h incubation at 37 °C in a humidified atmosphere, planktonic bacteria were removed by phosphate buffer solution (PBS). Biofilms were fixed with methanol for 15 min, then sucked out the fixative and air dry naturally. Then, biofilms were stained with 0.1% crystal violet for 15 min, washed and dried naturally. Finally, 33% acetic acid was used to dissolve crystal violet. The optical density at 570 nm was determined as a measure of biofilm mass.

[4] = in 0.01 M PBS or water; compared among four active AMPs
[5] = broth micro-dilution CLSI 2018, MHB, 18 h, 37 °C
[6] = lowest concentration killing 99.9%, plated on MHA

papain, sequence (P00784 134-345): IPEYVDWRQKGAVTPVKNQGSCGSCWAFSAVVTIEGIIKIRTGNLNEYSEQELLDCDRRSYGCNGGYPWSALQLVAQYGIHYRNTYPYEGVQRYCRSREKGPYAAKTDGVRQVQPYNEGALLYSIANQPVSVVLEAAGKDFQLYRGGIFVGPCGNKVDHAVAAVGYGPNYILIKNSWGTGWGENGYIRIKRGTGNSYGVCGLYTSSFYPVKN

With Ac-WRLRWKTRWRLK-NH2 [WRK-12] the MIC (MRSA T144; [5]) was 2 µg/mL, the MBC (MRSA T144; [6]) was 2 µg/mL and the MIC (E. coli 1F28 (tet(X4)); [5]) was 2 µg/mL. For the same substance, the MBC (E. coli 1F28 (tet(X4)); [6]) was 8 µg/mL, the MIC (E. coli B3-1 (tet(X4)); [5]) was 2 µg/mL and the MBC (E. coli B3-1 (tet(X4)); [6]) was 2 µg/mL. For the same substance, the MIC (E. faecalis A4 (VRE); [5]) was 4 µg/mL, the MBC (E. faecalis A4 (VRE); [6]) was 8 µg/mL and the MIC (E. coli 1A34) was 2 µg/mL. It also gave an MIC (E. coli 1C1) of 4 µg/mL, an MIC (E. coli 1F16) of 4 µg/mL and an MIC (E. coli 1F31) of 4 µg/mL. It also gave an MIC (E. coli 1N28) of 8 µg/mL, an MIC (E. coli 1N31) of 16 µg/mL and an MIC (E. coli 2A19) of 16 µg/mL. For the same substance, the MIC (E. coli 2W25) was 4 µg/mL, the MIC (Shigella 1F25) was 8 µg/mL and the “H (hydrophobicity, percent of acetonitrile at HPLC elution)” value [1] was 36.513 percent acetonitrile. The “activity reduction after thermal treatment” value (E. coli 1F28 [2]; 121 °C, 1 h) was 50%, the “activity reduction after pH treatment” value (E. coli 1F28 [2]; alkaline environment pH = 12, 1 h, readjusted to pH 7.2) was 50% and the “remaining antibacterial activity after pH treatment” value (E. coli 1F28 [2]; pH 2 to 10 for 1 h, readjusted to pH 7.2) was “completely retained its activity”. For the same substance, the “remaining antibacterial activity after thermal treatment” value (E. coli 1F28 [2]; treatment under 100 °C for 1 h) was “completely retained its activity”, the proteolytic stability (pepsin) was “resistant” and the proteolytic stability (papain) was “sensitive”. For the same substance, the “ROS production, DCFH-DA fluorescence” value (E. coli 1F28 [3]) was “triggered the production of ROS in a concentration-dependent manner”, the “inhibition of biofilm formation” value (E. coli 1F28 biofilm; 0.5 μg/mL, 37 °C, crystal violet OD570) was “significant inhibition effect” and the biofilm mass (E. coli 1F28 biofilm; 2 μg/mL or higher, crystal violet staining) was “drastically reduced”. The solubility [4] was “highest solubility”.
